Laboratory results taken from US12358904B2, “Inhibitors of TYK2” (Atomwise Inc., priority 2023, dated 2025).

Assays:
[1] = molecular target: T1, TYK2-JH2 (Homo sapiens, UniProt P29597); experiment: TYK2-JH2 HTRF binding assay (ligand efficiency); settings: calculated from IC50 of the TYK-JH2 binding assay (Equation 1)
T1 construct: TYK JH2 enzyme mix (ChemPartnec CP20210818A-BV); purchased ChemPartner CP20210818A-BV
Method: The following example describes the TYK2-JH2 HTRF binding assay used to determine the ligand efficiency of the TYK2 inhibitors.
To calculate ligand efficiency, Equation 1 is applied:
[formula] in which IC50 comes from the binding assay used to determine compound potency.
TYK JH2 enzyme mix (ChemPartnec CP20210818A-BV), tracer (ChemPartnec CP-0029472-051) and mAb Anti-6HIS Tb cryptate Gold (Cisbio: Cat No. 61H12TLA) mix were prepared in assay buffer (10 mM MgCl2, 20 mM HEPES pH 7.5, 0.01% Triton X-100, 1 mM DTT). Compounds diluted in DMSO (Final Concentrations 0.1 to 0.000005 [μM]) and enzyme mix (0.5 nM Final Concentration) were added to 384 well plates, briefly centrifuged and incubated at room temperature for 10 minutes. After incubation, tracer mix (Tracer-35 nM final concentration); (Mab Anti-6HIS Tb cryptate Gold-0.5× final)) was added, briefly centrifuged then incubate at room temperature 60 minutes. After incubation, plates were read by Envision TR-FRET (Ex340/Em495/520) protocol (PerkinElmer-Envision 2104 multilabel plate reader).

[2] = test system: IL-12/pSTAT4; experiment: IL-12 induced pSTAT4 assay in NK-92 cells; format: cell-based; settings: Homo sapiens, NK92, IL-12 stimulation, read-out: Cellular potency (IL-12/pSTAT4)
Method: The following example describes the IL-12 induced pSTAT4 assay used to determine the cellular potency (IL-12/pSTAT4) of the TYK2 inhibitors.
NK-92 cells (human natural killer lymphoma cell line) were cultured in MEM α, nucleosides (Life Technologies, 22571020) 12.5% heat inactivated FBS (Dominique Dutscher, S1810), 12.5% heat inactivated Horse serum (Life Technologies, 26050088) and 1% Penicillin-Streptomycin (Life Technologies, 15140122), 5 ng/mL human IL-2 (R&D systems, 202-II/CF), 0.2 mM inositol (Sigma, PHR1351 lot LRAC4118), 0.1 mM β-mercaptoethanol (Life Technologies, 31350010), and 0.02 mM folic acid (Sigma, F8758).
NK-92 cells were starved overnight in starvation medium (Opti-MEM (ThermoFisher, 11058-021), 10% charcoal stripped FBS (ThermoFisher 12676-029), and 1% Penicillin (100U/ml)-Streptomycin (100 μg/ml) (ThermoFisher, ref 15140122)), then plated in a 96-well tissue culture plate (20K cells/well) prior to pre-incubation with test compounds (Final Concentration [nM] 1000 to 0.05) for 30 minutes at 37° C. Cells were stimulated with IL-12 (Final Concentration l0 ng/ml) for 30 minutes at 37° C., and terminated by addition of lysis buffer (MSD K150PAD-2). pSTAT4 (Tyr693) was detected using the Mesa Scale Discovery platform (MSD K150PAD-2), according to manufacturer's instruction. Briefly, cell lysates were added to pre-blocked plates and incubated for 1 hour at room temperature. Plates were washed and incubated with detection antibody for 1 hour at room temperature. Plates were washed and Read Buffer was added prior to measurement on the MSD (1300 MSD Quickplex SQ 120).

T1 sequence (P29597 589-875 limits assumed): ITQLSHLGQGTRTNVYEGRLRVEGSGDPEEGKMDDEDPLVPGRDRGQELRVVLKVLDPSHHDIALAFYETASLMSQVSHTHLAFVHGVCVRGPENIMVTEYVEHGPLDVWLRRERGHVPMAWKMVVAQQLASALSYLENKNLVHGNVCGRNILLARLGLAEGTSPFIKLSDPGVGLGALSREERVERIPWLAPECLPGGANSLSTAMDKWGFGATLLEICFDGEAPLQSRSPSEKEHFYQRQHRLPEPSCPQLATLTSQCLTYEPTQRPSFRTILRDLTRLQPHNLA

| SMILES | Ligand Efficiency [1] | IC50 [2] |
| --- | --- | --- |
| CS(=O)(=O)c1cccnc1Nc1cc(Nc2ccc(N3CCN(C4CC4)CC3)cn2)ncn1 [Compound 7, N^4-(5-(4-cyclopropylpipeiazin-1-yl) 83yridine-2-yl)-N^6-(3-(methylsulfonyl)83yridine-2-yl)pyrimidine-4,6-diamine] | ††† (†††: >0.39) | < 100 nM |
| C[C@@H](c1ccc(Nc2cc(Nc3ncc(Cl)cc3S(C)(=O)=O)ncn2)nc1)N1CC2(COC2)C1 [Compound 14, (S)—N^4-(5-(1-(2-oxa-6-azaspiro[3.3]heptan-6-yl)ethyl) 95yridine-2-yl)-N^6-(5-chloro-3-(methylsulfonyl)95yridine-2-yl)pyrimidine-4,6-diamine] | ††† (†††: >0.39) | < 100 nM |
| C[C@@H](c1ccc(Nc2cc(Nc3ncccc3S(C)(=O)=O)ncn2)nc1)N1CCCC1 [Compound 15, I-N^4-(3-(methylsulfonyl)97yridine-2-yl)-N^6-(5-(1-(97yridine9797e-1-yl)ethyl)97yridine-2-yl)pyrimidine-4,6-diamine] | ††† (†††: >0.39) | < 100 nM |
| CS(=O)(=O)c1cccnc1Nc1cc(Nc2ccc([C@@H](N3CC4(COC4)C3)C(F)(F)F)cn2)ncn1 [Compound 16, I-N^4-(3-(methylsulfonyl)98yridine-2-yl)-N^6-(5-(2,2,2-trifluoro-1-(2-oxa-6-azaspiro[3.3]heptan-6-yl)ethyl)98yridine-2-yl)pyrimidine-4,6-diamine] | †† (††: 0.37-0.39) | < 100 nM |
| C[C@H]1CN(C)CCN1c1ccc(Nc2cc(Nc3ncccc3S(C)(=O)=O)ncn2)nc1 [Compound 20, (S)—N^4-(5-(2,4-dimethylpiperazin-1-yl)101yridine-2-yl)-N^6-(3-(methylsulfonyl)101yridine-2-yl)pyrimidine-4,6-diamine] | ††† (†††: >0.39) | < 100 nM |
| CS(=O)(=O)c1cccnc1Nc1cc(Nc2ccc(N3CCC4(CCO4)CC3)cn2)ncn1 [Compound 24, N^4-(5-(1-oxa-7-azaspiro[3.5]nonan-7-yl)104yridine-2-yl)-N^6-(3-(methylsulfonyl)104yridine-2-yl)pyrimidine-4,6-diamine] | †† (††: 0.37-0.39) | < 100 nM |
| C[C@@H](c1ccc(Nc2cc(Nc3ncccc3S(C)(=O)=O)ncn2)nc1)N1C[C@H]2COC[C@H]2C1 [Compound 25, N^4-(3-(methylsulfonyl)105yridine-2-yl)-N^6-(5-(1-((3aR,6aS)-tetrahydro-1H-furo[3,4-c]pyrrol-5 (3H)-yl)ethyl)105yridine-2-yl)pyrimidine-4,6-diamine] | ††† (†††: >0.39) | < 100 nM |
| C[C@@H](c1ccc(Nc2cc(Nc3ncccc3S(C)(=O)=O)ncn2)nc1)N1CCCC12CCOCC2 [Compound 29, (S)—N^4-(5-(1-(8-oxa-1-azaspiro[4.5]decan-1-yl)ethyl)111yridine-2-yl)-N^6-(3-(methylsulfonyl)111yridine-2-yl)pyrimidine-4,6-diamine] | †† (††: 0.37-0.39) | < 100 nM |
| C[C@H](c1ccc(Nc2cc(Nc3ncccc3S(C)(=O)=O)ncn2)nc1)N1CCC2(CCOCC2)C1 [Compound 30, I-N^4-(5-(1-(8-oxa-2-azaspiro[4.5]decan-2-yl)ethyl)112yridine-2-yl)-N^6-(3-(methylsulfonyl)112yridine-2-yl)pyrimidine-4,6-diamine] | †† (††: 0.37-0.39) | < 100 nM |
| C[C@@H](c1ccc(Nc2cc(Nc3ncccc3S(C)(=O)=O)ncn2)nc1)N1CC2(CCOCC2)C1 [Compound 31, I-N^4-(5-(1-(7-oxa-2-azaspiro[3.5]nonan-2-yl)ethyl)pyridine-2-yl)-N^6-(3-(methylsulfonyl)114yridine-2-yl)pyrimidine-4,6-diamine] | †† (††: 0.37-0.39) | < 100 nM |
| C[C@@H](c1ccc(Nc2cc(Nc3ncccc3S(C)(=O)=O)ncn2)nc1)N1CC2(CCOC2)C1 [Compound 32, (S)—N^4-(5-(1-(6-oxa-2-azaspiro[3.4]octan-2-yl)ethyl)114yridine-2-yl)-N^6-(3-(methylsulfonyl)114yridine-2-yl)pyrimidine-4,6-diamine] | ††† (†††: >0.39) | < 100 nM |
| CC(C)(c1ccc(Nc2cc(Nc3ncccc3S(C)(=O)=O)ncn2)nc1)N1CC2(CCOCC2)C1 [Compound 33, N^4-(5-(2-(7-oxa-2-azaspiro[3.5]nonan-2-yl)propan-2-yl)118yridine-2-yl)-N^6-(3-(methylsulfonyl)118yridine-2-yl)pyrimidine-4,6-diamine] | †† (††: 0.37-0.39) | < 100 nM |
| CC(c1ccc(Nc2cc(Nc3ncccc3S(C)(=O)=O)ncn2)nc1)N1CC2(CC(C(F)F)C2)C1 (stereo not shown) [Compound 34, N^4-(5-(1-(6-(difluoromethyl)-2-azaspiro[3.3]heptan-2-yl)ethyl) 120yridine-2-yl)-N^6-(3-(methylsulfonyl)120yridine-2-yl)pyrimidine-4,6-diamine] | †† (††: 0.37-0.39) | < 100 nM |
| CC1(CNc2ccc(Nc3cc(Nc4ncccc4S(C)(=O)=O)ncn3)nc2)COC1 [Compound 36, N^4-(5-(((3-methyloxetan-3-yl)methyl)amino)123yridine-2-yl)-N^6-(3-(methylsulfonyl)123yridine-2-yl)pyrimidine-4,6-diamine] | ††† (†††: >0.39) | < 100 nM |
| CS(=O)(=O)c1cccnc1Nc1cc(Nc2ccc(NC3CC(F)(F)C3)cn2)ncn1 [Compound 37, N^4-(5-(3,3-difluorocyclobutylamino)124yridine-2-yl)-N^6-(3-(methylsulfonyl)124yridine-2-yl)pyrimidine-4,6-diamine] | ††† (†††: >0.39) | < 100 nM |
| CS(=O)(=O)c1cccnc1Nc1cc(Nc2ccc(C(=O)NC3CC(F)(F)C3)cn2)ncn1 [Compound 38, N-(3,3-difluorocyclobutyl)-6-(6-(3-(methylsulfonyl)pyridine-2-ylamino)pyrimidin-4-ylamino)nicotinamide] | ††† (†††: >0.39) | < 100 nM |
| Cc1cccc(Nc2cc(Nc3ccccc3C(N)=O)nc(N)n2)n1 [Compound 55, 2-((2-amino-6-((6-methylpyridin-2-yl)amino)pyrimidin-4-yl)amino)benzamide] | †† (††: 0.37-0.39) | – |
| Cc1cccc(Nc2cc(Nc3ccccc3S(C)(=O)=O)nc(C)n2)n1 [Compound 56, 2-methyl-N^4-(6-methylpyridin-2-yl)-N^6-(2-(methylsulfonyl)phenyl) pyrimidine-4,6-diamine] | † (†: <0.37) | – |
| Cc1cccc(Nc2cc(Nc3ccccc3S(C)(=O)=O)nc(N)n2)n1 [Compound 57, N^4-(6-methylpyridin-2-yl)-N^6-(2-(methylsulfonyl)phenyl)pyrimidine-2,4,6-triamine] | ††† (†††: >0.39) | – |
| CC1(Nc2ccc(Nc3cc(Nc4ncccc4S(C)(=N)=O)ncn3)nc2)COC1 (stereo not shown) [Compound 73, N^4-(5-((3-methyloxetan-3-yl)amino)166yridine-2-yl)-N^6-(3-(S-methylsulfonimidoyl)166yridine-2-yl)pyrimidine-4,6-diamine] | ††† (†††: >0.39) | – |
| CC(c1ccc(Nc2ncnc(Nc3ncccc3S(C)(=O)=O)c2F)nc1)N1CC2(COC2)C1 (stereo not shown) [Compound 75, N^4-(5-(1-(2-oxa-6-azaspiro[3.3]heptan-6-yl)ethyl)168yridine-2-yl)-5-fluoro-N^6-(3-(methylsulfonyl)168yridine-2-yl)pyrimidine-4,6-diamine] | † (†: <0.37) | – |
